A short description of data set [1]: Solubility of acid addition salts in a liquid carrier (e.g. water). The note with it: salts of 1-(2,6-difluorophenyl)-N-[3-(5-morpholin-4-ylmethyl-1H-benzimidazol-2-yl)-1H-pyrazol-4-yl]-urea.
The nature of data set [2]: Solid-state and dissolution properties of the L-lactate salt of the compound of formula (1) and its crystalline forms. The class given is physicochemical. The note with it: for stability of crystalline form: crystalline forms of the L-lactate salt of the compound of formula (1). An excerpt: The lactic acid salts of the compound of formula (1) exist in one unstable form (FL3) and two stable forms (FL1 and FL2).

The conditions of data set [3]: antitumour agent; cited from earlier work.
In data set [4] the test system is HCT116 cell line. In words: Anti-proliferative activity, Alamar Blue assay. The class given is cell-based. The conditions noted are these: Homo sapiens, HCT-116, 72 h. The method, then:
The anti-proliferative activities of compounds for use in the combinations of the invention can be determined by measuring the ability of the compounds to inhibition of cell growth in a number of cell lines such as the human colon cancer cell line HCT116. […] The method is based on the ability of viable cells to reduce resazurin to its fluorescent product resorufin. […] The number of viable cells is determined by Alamar Blue assay as before. Cell lines can be obtained from the ECACC (European Collection of cell Cultures).
Background: Alamar Blue is a resazurin reagent that responds to reducing activity.

The target of data set [5] is T1, Human Hsp90a N-terminal domain (Homo sapiens, UniProt P07900).
T1 construct: purification of the Human Hsp90a N-terminal domain; made in house
As to the kind of experiment: Isothermal titration calorimetry (ITC) binding to human Hsp90. The conditions noted are these: pH 7.4. The protocol:
The ability of the compounds for use in the combinations of the invention to bind to human Hsp90 proteins was determined using isothermal titration calorimetry.
Isothermal titration calorimetry (ITC) experiments were performed with a VP-ITC titration calorimeter (Microcal Inc., Northampton, Mass., USA). […] All solutions were filtered and degassed prior to a titration being carried out. The enthalpy change resulting from each injection of ligand was obtained through integration of the calorimetric signal. Data were analysed using Origin 7.0 (Microcal Software Inc., Northampton, Mass.). Heats of dilution were estimated using the final injections of each individual titration and subtracted before data fitting. Different ITC experimental formats were employed in order to obtain compound dissociation constants (Kd's) over a wide range of affinities. […] In this type of experiment the stoichiometry parameter (N) was locked at 1 for data fitting.
A general note: In ITC the heat of successive injections is recorded.

The format of data set [6] is physicochemical. An excerpt: Samples for X-ray powder diffraction (XRPD) data collection were gently ground by marble mortar and loaded into a crystallographic capillary (from Hampton Research, Quartz or Glass Type 10, 0.4 or 0.7 mm diameter). Diffraction patterns were collected at room temperature using CuKa radiation (λ=1.5418 Å) from a Rigaku rotating anode RU3HR, Osmic blue confocal optics, ¼ c goniometer and a Rigaku HTC image plate detector. 2D Images were collected while spinning φ axis with a detector to crystal distance of 250 mm. Data collection was controlled by CrystalClear software and 2D images were converted to 1D plot (20 vs. Intensity) by Datasqueeze (intensity averaged over the azimuthal angle 0<χ<360° for 2θ range 3-30° in 0.02° steps). In house program AstexXRPD was used for manipulation and visualisation of 1D XRPD patterns.
It is nominally a tri-hydrate because there are 3 crystal water positions in the asymmetric unit, but they are not 100% occupied at room temperature and laboratory humidity. A saturated solution of form FL1 in methanol:water 9:1 was prepared at room temperature. Slow precipitation with approximately 4 volumes of acetone gave form FL2 which is stable in air.
A saturated solution of form FL1 in THF was prepared at room temperature. Slow precipitation with approximately 4 volumes of heptane gave form FL3.

For data set [7] the following is noted: clinical studies; cited from earlier work.
Data set [8] relates to PKG. The conditions noted are these: cited from earlier work.
Data set [9] deals with OVCAR-3 tumour cells. The note with it: OVCAR-3 tumour cells in which PKB is amplified; concentrations of 50 and 100 microM; cited from earlier work.
Data set [10] has as its system PKC. The note with it: cited from earlier work.
The conditions of data set [11]: mice; doses 10 times more than were needed for antitumour activity; cited from earlier work.
Data set [12] has as its system Acute Promyelocytic Leukemia (APL). The note with it: APL patients; cited from earlier work.
The nature of data set [13]: Physicochemical properties of the crystalline lactate salt of compound (AA).
The subject of data set [14] is P-glycoprotein-overexpressing subline of CCRF-CEM. The note with it: cited from earlier work.
Data set [15] deals with tubulin. The note with it: relative to epothilone A or paclitaxel; cited from earlier work.
The mark [16] stands for this setting: lactate (particularly L-lactate) salt of compound (AA).

The term IC50 denotes the midpoint of a concentration-inhibition curve. The term Kd denotes the concentration at which binding is half-saturated. By half-life is commonly meant how long it takes for the measured level to halve.

Where a name gives a salt, the structure may show the parent alone.

Consider “1-(2,6-difluorophenyl)-N-[3-(5-morpholin-4-ylmethyl-1H-benzimidazol-2-yl)-1H-pyrazol-4-yl]-urea [D-glucuronate]”, for which, in [1], the solubility entry is recorded as “greater than 25 mg/ml”.

With `CC(C)c1cc(C(=O)N2Cc3ccc(CN4CCN(C)CC4)cc3C2)c(O)cc1O` [(2,4-dihydroxy-5-isopropyl-phenyl)-[5-(4-methyl-piperazin-1-ylmethyl)-1,3-dihydro-isoindol-2-yl]-methanone], the hygroscopicity result in data set [2] (L-lactate of (2,4-dihydroxy-5-isopropyl-phenyl)-[5-(4-methyl-piperazin-1-ylmethyl)-1,3-dihydro-isoindol-2-yl]-methanone) is “non-hygroscopic”. Also, the rate of solubility result in data set [2] (compared with free base and hydrochloric and sulphuric acid salts) is “better rate of solubility than the free base and other salts tested”. Regarding `CCN[C@H]1CO[C@@H](O[C@H]2[C@H](O[C@H]3C#C/C=C\C#C[C@]4(O)CC(=O)C(NC(=O)OC)=C3/C4=C\CSSSC)O[C@H](C)[C@@H](NO[C@H]3C[C@H](O)[C@H](SC(=O)c4c(C)c(I)c(O[C@@H]5O[C@@H](C)[C@H](O)[C@@H](OC)[C@H]5O)c(OC)c4OC)[C@@H](C)O3)[C@@H]2O)C[C@@H]1OC` [Calicheamicin], in data set [3], the “potency relative to adriamycin” value was “over 1,000 times”. With `CC(C)c1cc(C(=O)N2Cc3ccccc3C2)c(O)cc1O` [Example 5, (1,3-Dihydro-isoindol-2-yl)-(2,4-dihydroxy-5-isopropyl-phenyl)-methanone], in data set [4], the half-inhibitory concentration (IC50) was less than 1000 nM. As for `CC(C)c1cc(C(=O)N2Cc3ccc(C(=O)N4CCNCC4)cc3C2)c(O)cc1O` [Example 54, (2,4-dihydroxy-5-isopropyl-phenyl)-[5-(piperazine-1-carbonyl)-1,3-dihydro-isoindol-2-yl]-methanone hydrochloride], the IC50 in [4] was less than 1000 nM.

For `CC(C)c1cc(C(=O)N2Cc3ccc(CN4CCN(C)CC4)cc3C2)c(O)cc1O` [Example 55, (2,4-dihydroxy-5-isopropyl-phenyl)-[5-(4-methyl-piperazin-1-ylmethyl)-1,3-dihydro-isoindol-2-yl]-methanone], the Kd in data set [5] is less than 100 nM.

`CC(C)c1cc(C(=O)N2Cc3ccc(CN4CCN(C)CC4)cc3C2)c(O)cc1O` [FL1, (2,4-dihydroxy-5-isopropyl-phenyl)-[5-(4-methyl-piperazin-1-ylmethyl)-1,3-dihydro-isoindol-2-yl]-methanone L-lactate]: in [2], the “stability of crystalline form” value was “stable”. Further, in data set [6], the “Stability of crystal form” value is “stable in air and at 40 °C and 75% RH for at least one month”.

Regarding `CC(C)c1cc(C(=O)N2Cc3ccc(CN4CCN(C)CC4)cc3C2)c(O)cc1O` [FL2, (2,4-dihydroxy-5-isopropyl-phenyl)-[5-(4-methyl-piperazin-1-ylmethyl)-1,3-dihydro-isoindol-2-yl]-methanone L-lactate], the “stability of crystalline form” value in [2] is listed as “stable hydrate”. For the same compound, in [6], the “Stability of crystal form” value is “stable in air”. With `CC(C)c1cc(C(=O)N2Cc3ccc(CN4CCN(C)CC4)cc3C2)c(O)cc1O` [FL3, (2,4-dihydroxy-5-isopropyl-phenyl)-[5-(4-methyl-piperazin-1-ylmethyl)-1,3-dihydro-isoindol-2-yl-]-methanone L-lactate], the “stability of crystalline form” value in data set [2] is recorded as “unstable”. The “Stability of crystal form” value in data set [6] is “transforms in air into form FL1”. In data set [6] (sample dried in air for 2 days), the “Crystal form by XRPD after drying in air” value is recorded as “conversion to form FL1 had occurred”. Consider `CCCCCCCCCCCCCCCCCCOP(=O)([O-])OC1CC[N+](C)(C)CC1` [KRX-0401, Perifosine], for which the half-life in [7] is roughly 100 h. Take `O=S(=O)(NCCNCC=C(c1ccccc1)c1ccccc1)c1cccc2cnccc12` [NL-71-101]: the half-maximal inhibitory concentration (IC50) in data set [8] is 36000 nM; in data set [10] it was 104000 nM. For the same compound, the apoptosis induction result in data set [9] was “induced apoptosis”. For `CCOC(=O)c1ccc2[nH]c3c(OC)c4[nH]c5ccc(C(=O)OCC)cc5c4cc3c2c1` [SR-13668], in data set [11], the adverse effects result is “no adverse effects”. For the compound `CC1=C(/C=C/C(C)=C/C=C/C(C)=C/C(=O)O)C(C)(C)CCC1` [Tretinoin, all-trans retinoic acid], in data set [12], the remissions induced is 64-100%. Consider `CC(C)c1cc(C(=O)N2Cc3ccc(CN4CCN(C)CC4)cc3C2)c(O)cc1O` [crystalline lactate salt, (2,4-dihydroxy-5-isopropyl-phenyl)-[5-(4-methyl-piperazin-1-ylmethyl)-1,3-dihydro-isoindol-2-yl]-methanone], for which the hygroscopicity entry in data set [13] (lactate (particularly L-lactate) salt of 1-cyclopropyl-3-[3-(5-morpholin-4-ylmethyl-1H-benzoimidazol-2-yl)-1H-pyrazol-4-yl]-urea (compound (AA))) is reported as “non-hygroscopic”. Besides, in data set [13] (setting [16]), the solubility in water entry is given as “good solubility in water” and the storage stability result is “stable to storage”. Take `C/C1=C/C[C@@H](/C(C)=C/c2csc(C)n2)OC(=O)C[C@H](O)C(C)(C)C(=O)[C@H](C)[C@@H](O)[C@@H](C)CCC1` [desoxyepothilone B]: the IC50 in [14] was 17 nM.

With `C/C(=C\c1csc(C)n1)[C@@H]1C[C@@H]2O[C@]2(C)CCC[C@H](C)[C@H](O)[C@@H](C)C(=O)C(C)(C)[C@@H](O)CC(=O)O1` [epothilone B], the “potency in inducing tubulin polymerization in vitro” value in data set [15] was “approximately twice as potent as epothilone A or paclitaxel”. On to `CC(C)c1cc(C(=O)N2Cc3ccc(CN4CCN(C)CC4)cc3C2)c(O)cc1O` [lactate salt, (2,4-dihydroxy-5-isopropyl-phenyl)-[5-(4-methyl-piperazin-1-ylmethyl)-1,3-dihydro-isoindol-2-yl]-methanone], for which the “solid-state stability in conditions of high relative humidity” value in data set [13] (lactate salt of compound (AA), gravimetric vapour sorption) was “stable anhydrous crystalline form”.

(Values after patent US8883790B2, “Pharmaceutical combinations” (Astex Therapeutics Limited, priority 2006, dated 2014).)
